Results taken from PubChem BioAssay (NCI).
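48-hour exposure; five concentrations; linearly interpolated endpoints. At the TGI there is no net growth.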

Legend:
Assay in all cases: DTP human tumour cell line panel, 48 h
HOP-62 NSCLC = test system: HOP-62 NSCLC
MOLT-4 leukemia = test system: MOLT-4 leukemia
NCI-H460 lung = test system: NCI-H460 lung
A549 NSCLC = test system: A549 NSCLC
NCI-H522 lung = test system: NCI-H522 lung
SK-OV-3 ovarian = test system: SK-OV-3 ovarian
OVCAR-8 ovarian = test system: OVCAR-8 ovarian
RXF 393 renal = test system: RXF 393 renal
HCT-15 colon = test system: HCT-15 colon
NCI-H226 lung = test system: NCI-H226 lung
SF-295 CNS = test system: SF-295 CNS
786-0 renal = test system: 786-0 renal
KM20L2 colon = test system: KM20L2 colon
K-562 leukemia = test system: K-562 leukemia
M19-MEL melanoma = test system: M19-MEL melanoma
SK-MEL-5 melanoma = test system: SK-MEL-5 melanoma
SNB-75 CNS = test system: SNB-75 CNS
TK-10 renal = test system: TK-10 renal
DMS 114 small cell lung = test system: DMS 114 small cell lung
DMS 273 small cell lung = test system: DMS 273 small cell lung
DLD-1 colon = test system: DLD-1 colon
UO-31 renal = test system: UO-31 renal
SW-620 colon = test system: SW-620 colon
RXF-631 renal = test system: RXF-631 renal
KM12 colon = test system: KM12 colon
EKVX NSCLC = test system: EKVX NSCLC
OVCAR-3 ovarian = test system: OVCAR-3 ovarian
MALME-3M melanoma = test system: MALME-3M melanoma
UACC-257 melanoma = test system: UACC-257 melanoma
M14 melanoma = test system: M14 melanoma
SNB-78 CNS = test system: SNB-78 CNS
ACHN renal = test system: ACHN renal
NCI-H23 lung = test system: NCI-H23 lung
A498 renal = test system: A498 renal
HL-60(TB) leukemia = test system: HL-60(TB) leukemia
CCRF-CEM leukemia = test system: CCRF-CEM leukemia
LXFL 529 NSCLC = test system: LXFL 529 NSCLC
SF-268 CNS = test system: SF-268 CNS
HOP-92 NSCLC = test system: HOP-92 NSCLC
OVCAR-5 ovarian = test system: OVCAR-5 ovarian
CAKI-1 renal = test system: CAKI-1 renal
HCT-116 colon = test system: HCT-116 colon
XF 498 CNS = test system: XF 498 CNS
HT29 colon = test system: HT29 colon
COLO 205 colon = test system: COLO 205 colon
RPMI-8226 leukemia = test system: RPMI-8226 leukemia
U251 CNS = test system: U251 CNS
SNB-19 CNS = test system: SNB-19 CNS
IGROV1 ovarian = test system: IGROV1 ovarian
HCC-2998 colon = test system: HCC-2998 colon
SN12C renal = test system: SN12C renal
SR leukemia = test system: SR leukemia
UACC-62 melanoma = test system: UACC-62 melanoma
LOX IMVI melanoma = test system: LOX IMVI melanoma
SF-539 CNS = test system: SF-539 CNS
OVCAR-4 ovarian = test system: OVCAR-4 ovarian
SK-MEL-2 melanoma = test system: SK-MEL-2 melanoma
HOP-18 NSCLC = test system: HOP-18 NSCLC
SK-MEL-28 melanoma = test system: SK-MEL-28 melanoma
MDA-N = test system: MDA-N
T-47D breast = test system: T-47D breast
MDA-MB-231 breast = test system: MDA-MB-231 breast
HS 578T breast = test system: HS 578T breast
NCI/ADR-RES ovarian = test system: NCI/ADR-RES ovarian
BT-549 breast = test system: BT-549 breast
PC-3 prostate = test system: PC-3 prostate
MDA-MB-435 = test system: MDA-MB-435
DU-145 prostate = test system: DU-145 prostate

NCCc1ccc2oc3cc(=O)c4ccccc4c-3nc2c1 showed a TGI (HOP-62 NSCLC) of 10.3 µM, a TGI (MOLT-4 leukemia) of 5.52 µM and a TGI (NCI-H460 lung) of 2.76 µM. The TGI (A549 NSCLC) was 2.18 µM, the TGI (NCI-H522 lung) was 7.66 µM and the TGI (SK-OV-3 ovarian) was 24.4 µM. For the same molecule, the TGI (OVCAR-8 ovarian) was 10.6 µM, the TGI (RXF 393 renal) was 9.94 µM and the TGI (HCT-15 colon) was 5.01 µM. For the same molecule, the TGI (NCI-H226 lung) was 17.5 µM, the TGI (SF-295 CNS) was 9.48 µM and the TGI (786-0 renal) was 4.89 µM. The TGI (KM20L2 colon) was 9.12 µM, the TGI (K-562 leukemia) was 6.95 µM and the TGI (M19-MEL melanoma) was 0.894 µM. For the same molecule, the TGI (SK-MEL-5 melanoma) was 2.13 µM, the TGI (SNB-75 CNS) was 6.06 µM and the TGI (TK-10 renal) was 27.3 µM. The TGI (DMS 114 small cell lung) was 2.85 µM, the TGI (DMS 273 small cell lung) was 3.11 µM and the TGI (DLD-1 colon) was 9.34 µM. The TGI (UO-31 renal) was 9.37 µM, the TGI (SW-620 colon) was 5.95 µM and the TGI (RXF-631 renal) was 8.88 µM. It also gave a TGI (KM12 colon) of 8.35 µM, a TGI (EKVX NSCLC) of 25.1 µM and a TGI (OVCAR-3 ovarian) of 8.12 µM. It also gave a TGI (MALME-3M melanoma) of 4.37 µM, a TGI (UACC-257 melanoma) of 7.4 µM and a TGI (M14 melanoma) of 4.18 µM. The TGI (SNB-78 CNS) was 23.3 µM, the TGI (ACHN renal) was 12 µM and the TGI (NCI-H23 lung) was 2.39 µM. The TGI (A498 renal) was 26.3 µM, the TGI (HL-60(TB) leukemia) was 3.42 µM and the TGI (CCRF-CEM leukemia) was 4.49 µM. The TGI (LXFL 529 NSCLC) was 13.4 µM, the TGI (SF-268 CNS) was 15.4 µM and the TGI (HOP-92 NSCLC) was 21.6 µM. The TGI (OVCAR-5 ovarian) was 15.4 µM, the TGI (CAKI-1 renal) was 24 µM and the TGI (HCT-116 colon) was 2.87 µM. It also gave a TGI (XF 498 CNS) of 7.01 µM, a TGI (HT29 colon) of 4.35 µM and a TGI (COLO 205 colon) of 1.81 µM. It also gave a TGI (RPMI-8226 leukemia) of 23.2 µM, a TGI (U251 CNS) of 10.6 µM and a TGI (SNB-19 CNS) of 11 µM. It also gave a TGI (IGROV1 ovarian) of 15.5 µM, a TGI (HCC-2998 colon) of 6.78 µM and a TGI (SN12C renal) of 7.22 µM. The TGI (SR leukemia) was 4.67 µM, the TGI (UACC-62 melanoma) was 8.58 µM and the TGI (LOX IMVI melanoma) was 4.42 µM. It also gave a TGI (SF-539 CNS) of 6.35 µM, a TGI (OVCAR-4 ovarian) of 15.8 µM and a TGI (SK-MEL-2 melanoma) of 5.16 µM. The TGI (HOP-18 NSCLC) was 4.67 µM and the TGI (SK-MEL-28 melanoma) was 10.7 µM.
Molecule Nc1ccc(S(=O)(=O)Nc2cnc3ccccc3n2)cc1 has a TGI (HOP-62 NSCLC) greater than 100 µM, a TGI (MOLT-4 leukemia) greater than 100 µM and a TGI (NCI-H460 lung) greater than 100 µM. The TGI (A549 NSCLC) was greater than 100 µM, the TGI (NCI-H522 lung) was greater than 100 µM and the TGI (SK-OV-3 ovarian) was greater than 100 µM. It also gave a TGI (MDA-N) greater than 100 µM, a TGI (OVCAR-8 ovarian) greater than 100 µM and a TGI (T-47D breast) greater than 100 µM. It also gave a TGI (RXF 393 renal) greater than 100 µM, a TGI (HCT-15 colon) greater than 100 µM and a TGI (NCI-H226 lung) greater than 100 µM. The TGI (SF-295 CNS) was greater than 100 µM, the TGI (786-0 renal) was greater than 100 µM and the TGI (KM20L2 colon) was greater than 100 µM. The TGI (K-562 leukemia) was greater than 100 µM, the TGI (M19-MEL melanoma) was greater than 100 µM and the TGI (SK-MEL-5 melanoma) was greater than 100 µM. For the same molecule, the TGI (SNB-75 CNS) was greater than 100 µM, the TGI (TK-10 renal) was greater than 100 µM and the TGI (DMS 114 small cell lung) was greater than 100 µM. The TGI (DMS 273 small cell lung) was greater than 100 µM, the TGI (DLD-1 colon) was greater than 100 µM and the TGI (UO-31 renal) was greater than 100 µM. The TGI (SW-620 colon) was greater than 100 µM, the TGI (RXF-631 renal) was greater than 100 µM and the TGI (KM12 colon) was greater than 100 µM. For the same molecule, the TGI (EKVX NSCLC) was greater than 100 µM, the TGI (OVCAR-3 ovarian) was greater than 100 µM and the TGI (MALME-3M melanoma) was greater than 100 µM. The TGI (UACC-257 melanoma) was greater than 100 µM, the TGI (M14 melanoma) was greater than 100 µM and the TGI (SNB-78 CNS) was greater than 100 µM. It also gave a TGI (ACHN renal) greater than 100 µM, a TGI (MDA-MB-231 breast) greater than 100 µM and a TGI (NCI-H23 lung) greater than 100 µM. It also gave a TGI (HS 578T breast) of 35.3 µM, a TGI (A498 renal) greater than 100 µM and a TGI (HL-60(TB) leukemia) greater than 100 µM. For the same molecule, the TGI (CCRF-CEM leukemia) was greater than 100 µM, the TGI (LXFL 529 NSCLC) was greater than 100 µM and the TGI (SF-268 CNS) was greater than 100 µM. For the same molecule, the TGI (HOP-92 NSCLC) was greater than 100 µM, the TGI (NCI/ADR-RES ovarian) was greater than 100 µM and the TGI (OVCAR-5 ovarian) was greater than 100 µM. The TGI (CAKI-1 renal) was greater than 100 µM, the TGI (HCT-116 colon) was greater than 100 µM and the TGI (XF 498 CNS) was greater than 100 µM. The TGI (HT29 colon) was greater than 100 µM, the TGI (COLO 205 colon) was greater than 100 µM and the TGI (BT-549 breast) was greater than 100 µM. The TGI (RPMI-8226 leukemia) was greater than 100 µM, the TGI (PC-3 prostate) was greater than 100 µM and the TGI (U251 CNS) was greater than 100 µM. For the same molecule, the TGI (SNB-19 CNS) was greater than 100 µM, the TGI (IGROV1 ovarian) was greater than 100 µM and the TGI (HCC-2998 colon) was greater than 100 µM. For the same molecule, the TGI (SN12C renal) was greater than 100 µM, the TGI (SR leukemia) was greater than 100 µM and the TGI (UACC-62 melanoma) was greater than 100 µM. The TGI (LOX IMVI melanoma) was greater than 100 µM, the TGI (SF-539 CNS) was greater than 100 µM and the TGI (MDA-MB-435) was greater than 100 µM. The TGI (OVCAR-4 ovarian) was greater than 100 µM, the TGI (DU-145 prostate) was greater than 100 µM and the TGI (SK-MEL-2 melanoma) was greater than 100 µM. For the same molecule, the TGI (HOP-18 NSCLC) was greater than 100 µM and the TGI (SK-MEL-28 melanoma) was greater than 100 µM.
